Assay results: ChEMBL document CHEMBL1201862, “PubChem BioAssay data set” (2004)
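Exposure lasted 48 hours, with cells grown in 96-well plates and compounds tested at five concentrations. Abbreviation: GI50, concentration required for 50% inhibition of growth.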 The source made the active and inactive calls. Cut-off read from the data, not from the text of the source: active = GI50 up to about 1.1 µM and inactive = higher.

Assays:
Assay in all cases: NCI tumour cell line growth inhibition, 48 h
HL-60 = tested on: HL-60
EKVX = tested on: EKVX
SN12C = tested on: SN12C
HCT-15 = tested on: HCT-15
SK-MEL-28 = tested on: SK-MEL-28
ACHN = tested on: ACHN
IGROV-1 = tested on: IGROV-1
MOLT-4 = tested on: MOLT-4
A549 = tested on: A549
COLO 205 = tested on: COLO 205
UO-31 = tested on: UO-31
OVCAR-3 = tested on: OVCAR-3
OVCAR-8 = tested on: OVCAR-8
SF-268 = tested on: SF-268
SK-OV-3 = tested on: SK-OV-3
HCC 2998 = tested on: HCC 2998

| SMILES | GI50 (HL-60) | GI50 (EKVX) | GI50 (SN12C) | GI50 (HCT-15) | GI50 (SK-MEL-28) | GI50 (ACHN) | GI50 (IGROV-1) | GI50 (MOLT-4) | GI50 (A549) | GI50 (COLO 205) | GI50 (UO-31) | GI50 (OVCAR-3) | GI50 (OVCAR-8) | GI50 (SF-268) | GI50 (SK-OV-3) | GI50 (HCC 2998) |
| --- | --- | --- | --- | --- | --- | --- | --- | --- | --- | --- | --- | --- | --- | --- | --- | --- |
| Cc1cc2ncn(CC(=O)O)c2cc1C | > 100 µM (inactive) | > 100 µM (inactive) | > 100 µM (inactive) | > 100 µM | > 100 µM (inactive) | > 100 µM (inactive) | > 100 µM (inactive) | > 100 µM (inactive) | > 100 µM (inactive) | > 100 µM (inactive) | > 100 µM (inactive) | > 100 µM (inactive) | > 100 µM (inactive) | > 100 µM (inactive) | > 100 µM (inactive) |  |
| Cc1c2c(OCC3CCCCO3)nn(C)c(=O)c2c(C)n1-c1ccccc1 (stereo unspecified) |  | 17.1 µM (inactive) | 19.4 µM (inactive) | 17.1 µM |  | 16.5 µM (inactive) | 18.4 µM (inactive) | 29 µM (inactive) | 17.5 µM (inactive) | 17.4 µM (inactive) | 16.6 µM (inactive) | 16.7 µM (inactive) | 19.9 µM (inactive) | 16.1 µM (inactive) | 18.3 µM (inactive) | 15.3 µM (inactive) |
| O=C(O)c1cnc(-n2[nH]c3c(c2=O)CCCC3)[nH]c1=O | > 100 µM (inactive) | > 100 µM (inactive) | > 100 µM (inactive) | > 100 µM | > 100 µM (inactive) | > 100 µM (inactive) | > 100 µM (inactive) | > 100 µM (inactive) | > 100 µM (inactive) | > 100 µM (inactive) | > 100 µM (inactive) |  | > 100 µM (inactive) | > 100 µM (inactive) | > 100 µM (inactive) |  |
| Cc1ccccc1-n1c(=O)nc2n(-c3ccc(C(C)(C)C)cc3)c3ccccc3cc-2c1=O | 20.3 µM (inactive) | 22.4 µM (inactive) | 17.7 µM (inactive) | 16.6 µM | 15.3 µM (inactive) | 32.5 µM (inactive) | 24.3 µM (inactive) | 23.8 µM (inactive) | 31.3 µM (inactive) | 18.5 µM (inactive) | 26.4 µM (inactive) | 18.4 µM (inactive) | 17.1 µM (inactive) | 27.5 µM (inactive) |  | 18.1 µM (inactive) |
| N#Cc1c(N)nc2c(/N=N\c3ccccc3)c(N)nn2c1Nc1ccccc1 | 2.52 µM (inactive) | 5.37 µM (inactive) | 7.69 µM (inactive) | 23.6 µM | 5.51 µM (inactive) | 20.4 µM (inactive) | 10.9 µM (inactive) | 3.24 µM (inactive) | 21.1 µM (inactive) | 9.93 µM (inactive) | > 10 µM (inactive) | 13.9 µM (inactive) | 3.72 µM (inactive) | 26.7 µM (inactive) |  | 4.41 µM (inactive) |
| NC(=O)C(=O)C(c1ccccc1)S(=O)(=O)Cc1ccccc1 (stereo unspecified) |  | > 100 µM (inactive) | > 100 µM (inactive) | > 100 µM | > 100 µM (inactive) | > 100 µM (inactive) | > 100 µM (inactive) | 16.5 µM (inactive) | > 100 µM (inactive) | > 100 µM (inactive) | > 100 µM (inactive) | > 100 µM (inactive) | > 100 µM (inactive) | > 100 µM (inactive) | > 100 µM (inactive) | > 100 µM (inactive) |
| CC(=O)/C(=C\NC(N)=S)C(=O)Nc1ccccc1C |  | > 100 µM (inactive) | > 100 µM (inactive) | > 100 µM | > 100 µM (inactive) | > 100 µM (inactive) | > 100 µM (inactive) | > 100 µM (inactive) | > 100 µM (inactive) | > 100 µM (inactive) | > 100 µM (inactive) | > 100 µM (inactive) | > 100 µM (inactive) | > 100 µM (inactive) | > 100 µM (inactive) | > 100 µM (inactive) |
| O=C(O)CSc1cc(-c2ccccc2)nc2ccccc12 | 22.2 µM (inactive) | > 100 µM (inactive) | 36.6 µM (inactive) | 43.6 µM | 85.1 µM (inactive) | 71.1 µM (inactive) | 57.7 µM (inactive) | 46.3 µM (inactive) | 55.5 µM (inactive) |  | 42.8 µM (inactive) | 21.7 µM (inactive) | 63.2 µM (inactive) | 35 µM (inactive) |  |  |
| COc1cc2ccc1OCc1cccc(n1)COc1ccc(cc1OC)/C=N\c1ccc(cc1)-c1ccc(cc1)/N=C\2 | > 100 µM (inactive) | > 100 µM (inactive) | > 100 µM (inactive) | > 100 µM |  | > 100 µM (inactive) | > 100 µM (inactive) | > 100 µM (inactive) | > 100 µM (inactive) | > 100 µM (inactive) | > 100 µM (inactive) | > 100 µM (inactive) | > 100 µM (inactive) | > 100 µM (inactive) | > 100 µM (inactive) | > 100 µM (inactive) |
